Reference: PubChem BioAssay (NCI)
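Cells were grown in 96-well plates and exposed to each compound for 48 hours at five concentrations; endpoints were interpolated linearly between bracketing concentrations, or set to the highest concentration if not reached. TGI: concentration producing complete growth inhibition.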 *1 amine or outer side, *2 acyl side, *3 side chain or, on linkers, in order; H or OH if unused. Where a SMILES comes first, the peptide text is derived from it. [ ]: non-standard residue; d: D form. The star is where a group is joined. X31 = CC(=O)N(C)SCC(N[*:1])C(=O)[*:2]; Fmoc = O=C(OCC1c2ccccc2-c2ccccc21)*; For = O=C*

Key:
Assay in all cases: NCI anticancer screen, dose series, 48 h
[1] = test system: HCT-116 colon
[2] = test system: DU-145 prostate
[3] = test system: KM12 colon
[4] = test system: UACC-62 melanoma
[5] = test system: SNB-75 CNS
[6] = test system: SK-MEL-2 melanoma
[7] = test system: A549 NSCLC
[8] = test system: HS 578T breast
[9] = test system: OVCAR-5 ovarian
[10] = test system: SW-620 colon

Structure (SMILES) | TGI [1] [µM] | TGI [2] [µM] | TGI [3] [µM] | TGI [4] [µM] | TGI [5] [µM] | TGI [6] [µM] | TGI [7] [µM] | TGI [8] [µM] | TGI [9] [µM] | TGI [10] [µM]
COC(=O)CCC1(O)C=CC(=O)C=C1 | > 100 | > 100 | > 100 | 58 | > 100 | > 100 | > 100 | > 100 | > 100 | > 100
CSc1nc(-c2ccc(Cl)cc2)c(C#N)c(=O)[nH]1 | > 100 | > 100 | > 100 | > 100 | > 100 | > 100 | > 100 | > 100 | > 100 | > 100
O=C(O)CO/N=C1/C(c2c(O)[nH]c3ccccc23)=Nc2ccccc21 | > 100 | > 100 | > 100 | > 100 | 74.4 | 80.1 | > 100 | > 100 | > 100 | > 100
COc1cccc(C(=O)N[C@@H]2[C@H](O)[C@@H](CO)O[C@H]2n2cnc3c(N)ncnc32)c1 | > 100 | > 100 | > 100 | > 100 | > 100 | > 100 | > 100 | > 100 | > 100 | > 100
CC(=O)/C(=C(/Br)I)c1ccccc1 | 15.2 | 31.4 | 28.2 | > 48.4 | 39.6 | 15.7 | 51.7 | > 66 | 32.1 | 11.4
COC(=O)C1(C)OC(C)=NC1(C(=O)OC)C(=O)OC (stereo not given) | > 100 | > 100 | > 100 | > 100 | > 100 | > 100 | > 100 | > 100 | > 100 | > 100
C#CC(O)Cc1ccc(OC)c2occc12 (stereo not given) | > 100 | > 100 | > 100 | > 100 | > 100 | > 100 | > 100 | > 100 | > 100 | > 100
COc1ccccc1N1C(=O)CC(=O)N(C(=O)CCCCCCCCC(=O)N2C(=O)CC(=O)N(c3ccccc3OC)C2=S)C1=S | > 100 | > 100 | > 100 | > 100 | > 100 | > 100 | > 100 | > 100 | > 100 | > 100
COC(=O)C1=NN2c3ccccc3CN([C@@H](C)c3ccccc3)C(=O)[C@H]2[C@@H]1C | > 100 | > 100 | > 100 | > 100 | 95 | > 100 | > 100 | > 100 | > 100 | > 100
CCc1n[nH]c(=S)n1/N=C\c1ccc(-c2ccccc2[N+](=O)[O-])o1 | > 100 | > 100 | > 100 | > 100 | > 100 | > 100 | > 100 | > 100 | > 100 | > 100
CN1CCCC(C(=O)OCC(=O)C2(O)CCC3C4CCC5=CC(=O)CCC5(C)C4C(O)CC32C)C1 (stereo not given) | 23.5 | 45.1 | > 69.7 | 37.7 | 17.5 | 39.3 | > 67.6 | > 82.9 | 52.2 | > 79.2
CC/C=C/C(/C=C/C[C@]1(CC)C[C@H](CC)[C@H](CC(=O)O)OO1)CC (stereo not given in full) | 6.81 | 4.36 | 3.68 | 12.1 | 15.4 | 9.11 | 3.99 | 4.85 | 7.61 | 5.1
CC(=O)NC1C(OCc2ccccc2)OC(CO)C(O)C1OCC(=O)N1CCCC1C(=O)NC(CCC(=O)NCCCCCNc1c2ccccc2nc2cccc([N+](=O)[O-])c12)C(N)=O (stereo not given) | 0.137 | 0.107 | 0.13 | 0.0751 | 0.479 | 0.0456 | 0.137 | 0.19 | 0.06 | 0.0424
CCCCCCC(=O)OC[n+]1cccc(-c2c(COC(=O)NC(C)C)c(COC(=O)NC(C)C)c3n2CCC3)c1 | > 87.2 | 98.4 | > 100 | 72.9 | > 100 | 60.4 | > 100 | > 100 | > 100 | > 100
Cc1cc(-c2ccc(C(=O)C(c3ccccc3)(c3ccccc3)c3ccccc3)[nH]2)on1 | 27.9 | 50.3 | 47.5 | 37 | > 100 | 36 | 45.6 | > 100 | > 100 | 75
NCCC1([N+](=O)[O-])CCNCC1 | > 100 | > 100 | > 100 | > 100 | > 100 | > 100 | > 100 | > 100 | > 100 | > 100
Nc1cc(N)c(N=Nc2cccc3c(S(=O)(=O)O)cccc23)cc1N=Nc1cc([N+](=O)[O-])ccc1O | > 100 | > 100 | > 100 | 59.2 | > 100 | > 100 | 67.9 | > 100 | 93.9 | > 100
CCN1C(=O)CS/C1=N\NC(=O)CSc1nc2ccccc2c(=O)n1CC | > 100 | > 100 | > 100 | > 100 | > 100 | > 100 | > 100 | > 100 | > 100 | > 100
O=C1C(NS(=O)(=O)c2ccccc2)=C(N(Cc2ccccc2)Cc2ccccc2)C(=O)c2ccccc21 | > 100 | > 100 | > 100 | > 100 | > 100 | 45.8 | > 100 | > 100 | > 100 | > 100
O=[N+]([O-])c1ccc2[nH]c(O)c(N=NC(=S)Nc3ccccc3)c2c1 | 18.6 | 67.3 | 27 | 29 | 21.5 | 31.3 | 20.8 | > 100 | 24.7 | > 100
S=C(Nc1cccc(C2(N3CCCCC3)CCCCC2)c1)Nc1cccc(C2(N3CCCCC3)CCCCC2)c1 | 48.4 | 80.8 | 33.2 | 33.3 | 28.6 | 33.3 | > 100 | > 100 | > 100 | > 100
OC1(c2ccc3ccccc3c2)c2c(c3ccccc3c3ccccc23)C2=NCCN21 (stereo not given) | 10.3 | > 65.3 | 6.12 | > 55.1 | 14.7 | > 46.3 | > 69.4 | 24.2 | > 83.7 | 23
C=C(CC)C[C@@H]1C[C@]2(C(=O)OC)c3[nH]c4ccccc4c3CCN2C1=O | 29.6 | > 100 | 58.9 | 36.2 | 66.2 | 33.1 | 32.4 | 41.1 | 56 | 35.9
O=C1Nc2ccc(Br)cc2/C1=C/C(=O)c1ccccc1 | 9.04 | 23.8 | 23 | 32.9 | 32 | 32.3 | > 62.6 | > 55.4 | 53.6 | 6.42
CC1(C)CC2(C)ON=C(c3ccccc3)N2c2ccccc2N1 (stereo not given) | 28 | > 100 | > 100 | 27.9 | 94.9 | 40.1 | > 100 | 42.6 | > 100 | > 100
COC(=O)CNCC1OC2OC(C)(C)OC2C1N=[N+]=[N-] (stereo not given) | > 100 | > 100 | > 100 | > 100 | > 100 | > 100 | > 100 | > 100 | > 100 | > 100
CC(=O)N(C)SCC(NC(=O)C(Cc1ccccc1)NC(=O)OCC1c2ccccc2-c2ccccc21)C(=O)NC(Cc1ccccc1)C(=O)NC(Cc1cn(C=O)c2ccccc12)C(=O)NC(CCCCNC(=O)OCC1c2ccccc2-c2ccccc21)C(=O)NC(C(=O)NC(CSN(C)C(C)=O)C(=O)NC(C(N)=O)C(C)O)C(C)O (stereo not given) (Fmoc-F[X31]FW(For)K(Fmoc)T[X31]T-NH2; configuration not given here) | > 100 | > 100 | 64.5 | > 100 | > 100 | > 100 | > 100 | > 100 | > 100 | > 100
Oc1ccccc1-n1nc2ccc3nonc3c2n1 | > 100 | > 100 | > 100 | > 100 | > 100 | > 100 | > 100 | > 100 | > 100 | > 100
COC(=O)[C@@H]1[C@H](O)CC[C@H]2[C@@]1(C)CC[C@@H](C)[C@]2(COC(C)=O)CC(=O)c1ccoc1 | > 50 | > 50 | > 50 | > 50 | > 50 | > 50 | > 50 | > 50 | > 50 | > 50
